Measurements reported in publication PMC5640644, “HDX reveals the conformational dynamics of DNA sequence specific VDR co-activator interactions” (Nature Communications, 2017).

B1: Full-length WT His-hVDR (Δ (151–190)) (receptor, human, UniProt P11473 1-427, looked up)
chain: MEAMAASTSLPDPGDFDRNVPRICGVCGDRATGFHFNAMTCEGCKGFFRRSMKRKALFTCPFNGDCRITKDNRRHCQACRLKRCVDIGMMKEFILTDEEVQRKREMILKRKEEEALKDSLRPKLSEEQQRIIAILLDAHHKTYDPTYSDFITSSDMMDSSSFSNLDLSEEDSDDPSVTLELSQLSMLPHLADLVSYSIQKVIGFAKMIPGFRDLTSEDQIVLLKSSAIEVIMLRSNESFTMDDMSWTCGNQDYKYRVSDVTKAGHSLELIEPLIKFQVGLKKLNLHEEEHVLLMAICIVSPDRPGVQDAALIEAIQDRLSNTLQTYIRCRHPPPGSHLLYAKMIQKLADLRSLNEEHSKQYRCLSFQPECSMKLTPLVLEVFGNEIS
notes: human vitamin D receptor (VDR), full length with residues 151-190 deleted; also called vitamin D receptor; source: baculovirus system, purified (Ni-NTA, SEC)

Experiments:
TRPV6 = TRPV6 gene activation assay (TRPV6 mRNA, QuantiGene 2.0) in differentiated C2BBe1 cells; format: cell-based, human
Method: C2BBe1 (a clone of CaCO2) cells (CRL-2101, American Type Culture Collection, Manassas, VA) were maintained in DMEM (ATCC 30-2002) supplemented with 10% FBS and insulin-transferrin-selenium-G supplement (Invitrogen, Carlsbad, CA). For TRPV6 expression analysis, cells were plated in 96-well tissue culture treated plates (40,000 per well) in differentiation medium (DMEM containing 5% charcoal-stripped FBS and insulin-transferrin-sodium selenite supplement (ITS)). Cells were allowed to differentiate for 6 days with medium replacement every other day before compound treatment. The medium was removed, and serial dilutions of 1,25D3 or VDRMs in concentrations ranging from 10 μM to 2 nM in differentiation medium were added. After 24 h, the medium was removed, and cell plates were sealed and frozen at −80 °C until assayed. QuantiGene 2.0 Assay Kit (Affymetrix QS0009) was used to quantitate TRPV6 and housekeeping gene GUSB mRNA levels. Following the kit instructions, lysis buffer was added to the frozen cells and incubated briefly at 55 °C […]. Following an overnight incubation the capture plates were washed and the probes amplified following kit instructions. The resulting luminescence signal was detected on an Envision plate reader (Perkin Elmer). TRPV6 signal was normalized using the GUSB signal and the resulting data was fit to a 4-parameter logistic to determine EC50 values.

BGLAP = BGLAP gene activation assay (BGLAP mRNA, QuantiGene 2.0) in MG-63 cells; format: cell-based, human
Method: Human osteosarcoma cells MG-63, (CRL-1427, American Type Culture Collection (ATCC), Manassas, VA), were maintained in EMEM (ATCC 30–2003) + 10% FBS in 5% CO2. For bone gamma-carboxyglutamate protein (BGLAP) expression analysis MG-63 cells, suspended in EMEM (ATCC 30–2003) + 5% charcoal dextran treated FBS, were seeded onto 96-well tissue culture treated plates at 25,000 cells per well. After an overnight incubation the medium was removed and serial dilutions of VDRMs in concentrations ranging from 10 μM to 2 nM in EMEM (ATCC 30–2003) + 5% charcoal dextran treated FBS were added. Following a 24 h incubation the medium was removed and the plates were sealed and stored at −80 °C for later processing. QuantiGene 2.0 Assay Kit (Affymetrix QS0009) was used to quantitate BGLAP and the Housekeeping gene […] mRNA levels. Following the kit instructions, lysis buffer was added to the frozen cells and incubated briefly at 55 °C. A volume of 20 μl of BGLAP probeset (Affymetrix SA-10875-01) or 18 S (Affymetrix SA-10026) in blocking buffer was added to the provided capture plates before adding 80 μl of the cell lysate. The plates were sealed and incubated at 55 °C overnight. Following an overnight incubation the capture plates were washed and the probes amplified following kit instructions. The resulting luminescence signal was detected on an Envision (Perkin Elmer). BGLAP signal was normalized using the 18S signal and the resulting data was fit to a 4-parameter logistics to determine EC50.

WT Flag-h RXRα = target: T1, WT Flag-h RXRα (human, UniProt P19793 1-462); assay: native gel or EMSA; VDR and RXRα mixed at 1:1 molar ratio (about 10 μM); 6% DNA Retardation gel, 0.5X TBE, 150 V, room temperature; ethidium bromide and coomassie staining; conditions: both partners purified
T1 construct: human retinoid X receptor alpha (RXRα), full length; also called retinoid X receptor α; source: baculovirus system, purified (Flag, SEC)
T1 sequence (looked up): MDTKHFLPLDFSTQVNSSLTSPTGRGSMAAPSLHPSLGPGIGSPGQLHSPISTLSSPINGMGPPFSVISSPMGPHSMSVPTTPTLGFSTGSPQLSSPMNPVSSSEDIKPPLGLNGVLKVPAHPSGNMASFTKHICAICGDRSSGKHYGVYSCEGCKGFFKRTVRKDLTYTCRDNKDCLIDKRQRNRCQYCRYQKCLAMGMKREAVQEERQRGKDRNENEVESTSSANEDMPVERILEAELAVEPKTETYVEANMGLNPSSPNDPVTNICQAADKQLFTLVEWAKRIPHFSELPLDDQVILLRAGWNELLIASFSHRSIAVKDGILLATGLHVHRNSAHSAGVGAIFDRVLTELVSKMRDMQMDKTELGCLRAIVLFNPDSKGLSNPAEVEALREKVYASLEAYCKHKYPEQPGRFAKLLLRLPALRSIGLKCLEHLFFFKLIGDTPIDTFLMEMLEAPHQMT

Molecule | Max. Stim., TRPV6 activation (TRPV6; C2BBe1 cells, fold change over DMSO normalized to 1,25D3 = 100%) | EC50 (TRPV6; Homo sapiens, C2BBe1 cells differentiated 6 days, 24 h, average of replicate runs) | EC50 (BGLAP; Homo sapiens, MG-63, 24 h, read-out: EC50, BGLAP activation) | Max. Stim., BGLAP activation (BGLAP; MG-63 cells, fold change over DMSO normalized to 1,25D3 = 100%) | binding result (WT Flag-h RXRα)
C=C1/C(=C\C=C2/CCC[C@]3(C)[C@@H]([C@H](C)CCCC(C)(C)O)CC[C@@H]23)C[C@@H](O)C[C@@H]1O [1,25D3, 1α,25-dihydroxyvitamin D3, reference compound] | 100% | 9.81 nM | 4.1 nM | 100% | –
B1 | – | – | – | – | binds
